These results are taken from US7468445B2, “Antigiardial agents and use thereof” (University of Mississippi, priority 2002, dated 2008).

Values after ≈ are worked out from the molar mass of the structure shown.

One data set deals with Giardia lamblia.
Test: not given
As to conditions: biological evaluation of natural products; formononetin and pseudobaptigenin in vitro; cited from earlier work.
For `COc1ccc(-c2coc3cc(O)ccc3c2=O)cc1` [formononetin], the “antigiardial activity” value is reported as “potent antigiardial activity”.

In the case of `O=c1c(O)c(-c2ccc(O)cc2)oc2cc(O)cc(O)c12` [kaempferol], the “antigiardial activity” value was “exhibit antigiardial activity”.

For `O=c1c(-c2ccc3c(c2)OCO3)coc2cc(O)ccc12` [pseudobaptigenin], the “antigiardial activity” value is “potent antigiardial activity”.

`O=c1c(O)c(-c2ccc(O)c(O)c2)oc2cc(O)cc(O)c12` [quercetin]: the “antigiardial activity” value is “exhibit antigiardial activity”.

Turning to geranins A [geranin A], the “antigiardial activity” value is listed as “exhibit antigiardial activity”.

A further data set deals with Giardia intestinalis (ATCC #30888). Briefly: Antigiardial biological screening (XTT tetrazolium dye procedure). The following applies: Giardia duodenalis, ATCC30888; concentration that inhibits giardial growth by 50%, estimated graphically; samples at 10, 3.3 and 1.1 μg/mL, 24 h at 37° C., XTT; NA = inactive; read-out: IC50. The format is cell-based. Here is the method: Biological Screening. […] Subculturing was done every 48-72 h under a sterile biosafety hood. Tubes were chilled in an ice bath for 10 min. in order to detach the organisms, and 1 mL of cell suspension was added to 14 mL of fresh medium. To carry out the screening, a suspension of Giardia cells was prepared at a concentration of 100,000 cells/mL. 100 μL of the suspension was then added to each well of a Corning 96-well flat-bottomed tissue culture-treated plate. Blank wells received medium only. An additional 125 μL of medium was added to each well, and the plates were incubated at 37° C. for 24 h in an anaerobic chamber filled with nitrogen. […] The plates were further incubated at 37° C. for 24 h. The plates were then processed using a tetrazolium dye (XTT) procedure. Absorbance readings were taken at 450 nm with background at 630 nm subtracted.
In the case of `O=c1c(-c2ccccc2)coc2c(Cl)c(O)ccc12` [P(A2,B1), 8-Chloro-7-hydroxy-3-phenylchromen-4-one], the IC50 (in general, the concentration needed to halve the response being measured) was 1.7 µg/mL (≈ 6.23 µM).

Turning to `O=c1c(-c2ccccc2)coc2c(Br)c(O)ccc12` [P(A3,B1), 8-Bromo-7-hydroxy-3-phenylchromen-4-one], the IC50 was 1.6 µg/mL (≈ 5.05 µM).

Take `O=c1c(-c2ccccc2)coc2cc(O)c(Br)cc12` [P(A6,B1), 6-Bromo-7-hydroxy-3-phenylchromen-4-one]: the IC50 is 5 µg/mL (≈ 15.8 µM).

Turning to `Cc1ncc([N+](=O)[O-])n1CCO` [metronidazole, reference compound], the IC50 was 1.5 µg/mL (≈ 8.76 µM).

The data set is the same for the next values; noted with them: concentration that inhibits giardial growth by 50%, estimated graphically; samples at 10, 3.3 and 1.1 μg/mL, 24 h at 37° C., XTT; NA = inactive.
Consider `O=c1c(-c2ccccc2)coc2c(F)c(O)ccc12` [P(A1,B1)], for which the IC50 is under 1.1 µg/mL.

As to `O=c1c(-c2ccc(Cl)cc2)coc2c(F)c(O)ccc12` [P(A1,B8)], the 50% inhibitory concentration (IC50) was over 10.0 µg/mL.

For the molecule `O=c1c(-c2ccc(F)cc2)coc2c(F)c(O)ccc12` [P(A1,B9)], the IC50 is over 10.0 µg/mL.

Take `COc1ccc(-c2coc3c(F)c(O)ccc3c2=O)cc1` [P(A1,B11)]: the IC50 was under 1.1 µg/mL.

Turning to `O=c1c(-c2ccc(Br)cc2)coc2c(F)c(O)ccc12` [P(A1,B17)], the IC50 was over 10.0 µg/mL.

`CCOc1ccc(-c2coc3c(F)c(O)ccc3c2=O)cc1` [P(A1,B18)]: the IC50 was 8.8 µg/mL (≈ 29.3 µM).

In the case of `Cc1cccc(-c2coc3c(F)c(O)ccc3c2=O)c1` [P(A1,B19)], the IC50 was under 1.1 µg/mL.

On to `Cc1ccc(-c2coc3c(F)c(O)ccc3c2=O)cc1` [P(A1,B20)], for which the IC50 was under 1.1 µg/mL.

As for `O=c1c(-c2ccc(F)c(F)c2)coc2c(F)c(O)ccc12` [P(A1,B22)], the IC50 is under 1.1 µg/mL.

For the molecule `O=c1c(-c2cccc(Cl)c2)coc2c(F)c(O)ccc12` [P(A1,B27)], the concentration for half-maximal inhibition (IC50) was under 1.1 µg/mL.

Regarding `O=c1c(-c2ccc(Cl)cc2)coc2c(Cl)c(O)ccc12` [P(A2,B8)], the IC50 is 4.5 µg/mL (≈ 14.7 µM).

For the molecule `O=c1c(-c2ccc(F)cc2)coc2c(Cl)c(O)ccc12` [P(A2,B9)], the IC50 was over 10.0 µg/mL.

Regarding `COc1ccc(-c2coc3c(Cl)c(O)ccc3c2=O)cc1` [P(A2,B11)], the IC50 is over 10.0 µg/mL.

As to `O=c1c(-c2ccc(Br)cc2)coc2c(Cl)c(O)ccc12` [P(A2,B17)], the concentration for half-maximal inhibition (IC50) is 5.7 µg/mL (≈ 16.2 µM).

Turning to `CCOc1ccc(-c2coc3c(Cl)c(O)ccc3c2=O)cc1` [P(A2,B18)], the IC50 was over 10.0 µg/mL.

In the case of `Cc1cccc(-c2coc3c(Cl)c(O)ccc3c2=O)c1` [P(A2,B19)], the IC50 is over 10.0 µg/mL.

In the case of `Cc1ccc(-c2coc3c(Cl)c(O)ccc3c2=O)cc1` [P(A2,B20)], the IC50 was over 10.0 µg/mL.

As to `O=c1c(-c2ccc(F)c(F)c2)coc2c(Cl)c(O)ccc12` [P(A2,B22)], the IC50 was 3.7 µg/mL (≈ 12 µM).

Take `O=c1c(-c2cc(F)cc(F)c2)coc2c(Cl)c(O)ccc12` [P(A2,B23)]: the IC50 is under 1.1 µg/mL.

As for `O=c1c(-c2cccc(Br)c2)coc2c(Cl)c(O)ccc12` [P(A2,B26)], the IC50 is under 1.1 µg/mL.

For the molecule `O=c1c(-c2cccc(Cl)c2)coc2c(Cl)c(O)ccc12` [P(A2,B27)], the IC50 was 1.7 µg/mL (≈ 5.54 µM).

Take `O=c1c(-c2cccc(F)c2)coc2c(Cl)c(O)ccc12` [P(A2,B28)]: the IC50 was 5.2 µg/mL (≈ 17.9 µM).

As for `COc1cccc(-c2coc3c(Cl)c(O)ccc3c2=O)c1` [P(A2,B29)], the IC50 is 4.8 µg/mL (≈ 15.9 µM).

As for `O=c1c(-c2ccc(Cl)cc2)coc2c(Br)c(O)ccc12` [P(A3,B8)], the 50% inhibitory concentration (IC50) was 1.9 µg/mL (≈ 5.4 µM).

As to `O=c1c(-c2ccc(F)cc2)coc2c(Br)c(O)ccc12` [P(A3,B9)], the IC50 is 6.8 µg/mL (≈ 20.3 µM).

Turning to `CCOc1ccc(-c2coc3c(Br)c(O)ccc3c2=O)cc1` [P(A3,B10)], the IC50 is 9.3 µg/mL (≈ 25.7 µM).

On to `COc1ccc(-c2coc3c(Br)c(O)ccc3c2=O)cc1` [P(A3,B11)], for which the IC50 is under 1.1 µg/mL.

In the case of `O=c1c(-c2ccc(Br)cc2)coc2c(Br)c(O)ccc12` [P(A3,B17)], the half-inhibitory concentration (IC50) was over 10.0 µg/mL.

As to `Cc1cccc(-c2coc3c(Br)c(O)ccc3c2=O)c1` [P(A3,B19)], the IC50 was under 1.1 µg/mL.

For `Cc1ccc(-c2coc3c(Br)c(O)ccc3c2=O)cc1` [P(A3,B20)], the IC50 was 3.9 µg/mL (≈ 11.8 µM).

For the molecule `O=c1c(-c2cccc(Cl)c2)coc2c(Br)c(O)ccc12` [P(A3,B27)], the IC50 was 1.9 µg/mL (≈ 5.4 µM).

`O=c1c(-c2cccc(F)c2)coc2c(Br)c(O)ccc12` [P(A3,B28)]: the IC50 was under 1.1 µg/mL.

Consider `O=c1c(-c2ccccc2)coc2cc(O)c(F)cc12` [P(A4,B1)], for which the IC50 is 6.2 µg/mL (≈ 24.2 µM).

For `O=c1c(-c2ccc(Cl)cc2)coc2cc(O)c(F)cc12` [P(A4,B8)], the IC50 was 6.4 µg/mL (≈ 22 µM).

With `O=c1c(-c2ccc(F)cc2)coc2cc(O)c(F)cc12` [P(A4,B9)], the half-inhibitory concentration (IC50) is over 10.0 µg/mL.

Take `COc1ccc(-c2coc3cc(O)c(F)cc3c2=O)cc1` [P(A4,B11)]: the IC50 was over 10.0 µg/mL.

Take `O=c1c(-c2ccc(Br)cc2)coc2cc(O)c(F)cc12` [P(A4,B17)]: the IC50 was 9.0 µg/mL (≈ 26.9 µM).

With `Cc1cccc(-c2coc3cc(O)c(F)cc3c2=O)c1` [P(A4,B19)], the IC50 is under 1.1 µg/mL.

In the case of `Cc1ccc(-c2coc3cc(O)c(F)cc3c2=O)cc1` [P(A4,B20)], the IC50 was over 10.0 µg/mL.

Consider `O=c1c(-c2ccc(Cl)c(Cl)c2)coc2cc(O)c(F)cc12` [P(A4,B21)], for which the IC50 was over 10.0 µg/mL.

Regarding `O=c1c(-c2ccc(F)c(F)c2)coc2cc(O)c(F)cc12` [P(A4,B22)], the IC50 is 9.4 µg/mL (≈ 32.2 µM).

As for `O=c1c(-c2cccc(F)c2)coc2cc(O)c(F)cc12` [P(A4,B28)], the IC50 is 4.3 µg/mL (≈ 15.7 µM).

`O=c1c(-c2ccc(Br)cc2)coc2cc(O)c(Cl)cc12` [P(A5,B17)]: the IC50 was over 10.0 µg/mL.

Turning to `Cc1cccc(-c2coc3cc(O)c(Cl)cc3c2=O)c1` [P(A5,B19)], the half-maximal inhibitory concentration (IC50) is 2.5 µg/mL (≈ 8.72 µM).

As to `O=c1c(-c2ccc(Cl)c(Cl)c2)coc2cc(O)c(Cl)cc12` [P(A5,B21)], the IC50 is 9.8 µg/mL (≈ 28.7 µM).

Consider `O=c1c(-c2cc(F)cc(F)c2)coc2cc(O)c(Cl)cc12` [P(A5,B23)], for which the IC50 was 6.7 µg/mL (≈ 21.7 µM).

Regarding `O=c1c(-c2cccc(Cl)c2)coc2cc(O)c(Cl)cc12` [P(A5,B27)], the IC50 was over 10.0 µg/mL.

Take `Cc1ccc(-c2coc3cc(O)c(Br)cc3c2=O)cc1` [P(A6,B20)]: the IC50 is over 10.0 µg/mL.

With `O=c1c(-c2cccc(F)c2)coc2cc(O)c(Br)cc12` [P(A6,B28)], the IC50 is under 1.1 µg/mL.

Still in this data set, the particulars now being: discussion of the IC50 table.
`COc1ccc(-c2coc3c(F)c(O)ccc3c2=O)cc1` [P(A1,B11)]: the “antigiardial activity/potency in words (SAR discussion)” value (“antigiardial activity/potency in words” for short) was “enhanced potency”.

As to `O=c1c(-c2ccc(-c3ccccc3)cc2)coc2c(F)c(O)ccc12` [P(A1,B16)], the “antigiardial activity/potency in words” value is given as “less activity”.

Turning to `Cc1cccc(-c2coc3c(F)c(O)ccc3c2=O)c1` [P(A1,B19)], the “antigiardial activity/potency in words” value is reported as “enhanced potency”.

On to `COc1ccc(-c2coc3c(Br)c(O)ccc3c2=O)cc1` [P(A3,B11)], for which the “antigiardial activity/potency in words” value is given as “enhanced potency”.

For the molecule `Cc1cccc(-c2coc3c(Br)c(O)ccc3c2=O)c1` [P(A3,B19)], the “antigiardial activity/potency in words” value is listed as “enhanced potency”.

Consider `O=c1c(-c2cccc(F)c2)coc2c(Br)c(O)ccc12` [P(A3,B28)], for which the “antigiardial activity/potency in words” value is recorded as “enhanced potency”.

With `O=c1c(-c2ccc(-c3ccccc3)cc2)coc2cc(O)c(F)cc12` [P(A4,B16)], the “antigiardial activity/potency in words” value is given as “less activity”.

For `Cc1cccc(-c2coc3cc(O)c(F)cc3c2=O)c1` [P(A4,B19)], the “antigiardial activity/potency in words” value is listed as “enhanced potency”.

Consider `O=c1c(-c2ccc(-c3ccccc3)cc2)coc2cc(O)c(Cl)cc12` [P(A5,B16)], for which the “antigiardial activity/potency in words” value was “less activity”.

Consider `O=c1c(-c2ccc(-c3ccccc3)cc2)coc2cc(O)c(Br)cc12` [P(A6,B16)], for which the “antigiardial activity/potency in words” value is recorded as “less activity”.

In the case of `O=c1c(-c2cccc(F)c2)coc2cc(O)c(Br)cc12` [P(A6,B28)], the “antigiardial activity/potency in words” value is “enhanced potency”.

Test system in another data set: not given
Test: not given
Conditions: not given
Consider `O=c1c(-c2ccccc2)coc2c(Cl)c(O)ccc12` [P(A2,B1), 8-Chloro-7-hydroxy-3-phenylchromen-4-one], for which the melting point (commonly the temperature, or range, at which the solid turns liquid) lay within 242 to 244 °C.

For the molecule `O=c1c(-c2ccccc2)coc2c(Br)c(O)ccc12` [P(A3,B1), 8-Bromo-7-hydroxy-3-phenylchromen-4-one], the melting point is 256 to 258 °C.

Consider `O=c1c(-c2ccccc2)coc2cc(O)c(Cl)cc12` [P(A5,B1), 6-Chloro-7-hydroxy-3-phenylchromen-4-one], for which the melting point lay in the range of 279 to 280 °C.

`O=c1c(-c2ccccc2)coc2cc(O)c(Br)cc12` [P(A6,B1), 6-Bromo-7-hydroxy-3-phenylchromen-4-one]: the melting point was 296 to 297 °C (dec.).
